Test results as given in patent US12059425B2, “Heterocyclic compounds and uses thereof” (Kumquat Biosciences Inc., priority 2022, dated 2024).

How the values were obtained:
[1] = biological target: T1, K-Ras G12D (Homo sapiens, UniProt P01116, G12D); assay: PPI-HTRF assay, K-Ras G12D / SOS1 interaction; format: biochemical; conditions: HTRF, K-Ras G12D; read-out: PPI-HTRF-5 nM (K-Ras G12D IC50)
T1 construct: made in house; host or cells: E. coli, e.g. BL21 (DE3)
Method in brief: (§1)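 Compound in DMSO is dispensed first, then GST-K-Ras plus anti-GST-Eu(K), then His-hSOS1 plus anti-6His-XL665. Plates incubate about 10 min or longer before HTRF measurement at 620 and 665 nm. IC50 values are derived from the emission ratio for each K-Ras variant.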

[2] = biological target: T2, K-Ras G12S (Homo sapiens, UniProt P01116, G12S); assay: PPI-HTRF assay, K-Ras G12S / SOS1 interaction; format: biochemical; conditions: read-out: PPI-HTRF-5 nM (K-Ras G12S IC50)
T2 construct: made in house; host or cells: E. coli, e.g. BL21 (DE3)
T2 sequence (P01116 1-188 isoform P01116-2 G12S): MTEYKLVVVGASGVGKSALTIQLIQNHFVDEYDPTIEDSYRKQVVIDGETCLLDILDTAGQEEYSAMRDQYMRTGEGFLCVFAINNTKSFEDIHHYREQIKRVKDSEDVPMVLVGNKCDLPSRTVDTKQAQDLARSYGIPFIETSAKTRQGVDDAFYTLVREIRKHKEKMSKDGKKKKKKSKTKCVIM
Method in brief: as §1

[3] = biological target: T3, K-Ras G12V (Homo sapiens, UniProt P01116, G12V); assay: PPI-HTRF assay, K-Ras G12V / SOS1 interaction; format: biochemical; conditions: HTRF, K-Ras G12V; read-out: PPI-HTRF-5 nM (K-Ras G12V IC50)
T3 construct: made in house; host or cells: E. coli, e.g. BL21 (DE3)
T3 sequence (P01116 1-188 isoform P01116-2 G12V): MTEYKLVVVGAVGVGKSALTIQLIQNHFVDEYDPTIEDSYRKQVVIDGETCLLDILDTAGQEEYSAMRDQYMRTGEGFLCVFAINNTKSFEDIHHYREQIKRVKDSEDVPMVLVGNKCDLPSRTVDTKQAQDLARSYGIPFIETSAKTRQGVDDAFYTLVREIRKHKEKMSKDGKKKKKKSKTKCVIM
Method in brief: as §1

[4] = biological target: T4, wildtype K-Ras (Homo sapiens, UniProt P01116); assay: PPI-HTRF assay, wildtype K-Ras / SOS1 interaction; format: biochemical; conditions: HTRF, K-Ras wt; read-out: PPI-HTRF-5 nM (K-Ras wt IC50)
T4 construct: made in house; host or cells: E. coli, e.g. BL21 (DE3)
T4 sequence (P01116 1-188 isoform P01116-2): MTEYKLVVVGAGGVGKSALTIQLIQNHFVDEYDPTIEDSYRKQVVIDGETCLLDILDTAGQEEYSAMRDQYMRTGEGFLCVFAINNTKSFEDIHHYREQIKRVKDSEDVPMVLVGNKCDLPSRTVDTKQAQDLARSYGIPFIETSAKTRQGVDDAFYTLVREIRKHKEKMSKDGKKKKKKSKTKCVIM
Method in brief: as §1

[5] = tested on: GP2D cells; assay: Ras cellular assay, cell proliferation GP2D; format: cell-based
Method in brief: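 Growth inhibition read by CellTiter-Glo luminescence roughly 5 days after compound addition, which followed overnight plating of G12D-mutant GP2D cells (e.g., 800 per well). Compounds were tested as a serial dilution (e.g., 9 points, 3-fold), with IC50 fitted by four-parameter model.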

[6] = tested on: A549 cells; assay: Ras cellular assay, cell proliferation A549; format: cell-based; conditions: Homo sapiens
Method in brief: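 G12S-mutant A549 cells (800/well) in RPMI-1640 plus 10% heat-inactivated FBS, standard or ultra-low attachment 384-well plates, dosed the day after plating with a 10-point 3-fold series. Viability by CellTiter-Glo luminescence about 6 days later; IC50 from four-parameter fit.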

[7] = tested on: SW620 cells; assay: Ras cellular assay, cell proliferation SW620; format: cell-based; conditions: Homo sapiens, SW-620
Text: For example, this assay can be also used to assess selective growth inhibition of a mutant Ras protein relative to a wildtype, or relative to a different mutant Ras protein.

T1 sequence (P01116 1-188 isoform P01116-2 G12D): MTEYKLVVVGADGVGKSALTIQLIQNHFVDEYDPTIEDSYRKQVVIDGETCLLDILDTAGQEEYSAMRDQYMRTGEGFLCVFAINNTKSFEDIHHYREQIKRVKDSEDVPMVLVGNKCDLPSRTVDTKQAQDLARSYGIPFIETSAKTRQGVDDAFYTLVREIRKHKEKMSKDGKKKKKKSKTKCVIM

IC50 [1] | IC50 [2] | IC50 [3] | IC50 [4] | IC50 [6] | IC50 [7] | Compound | IC50 [5]
< 5 µM | < 5 µM | < 5 µM | < 5 µM | < 5 µM | < 5 µM | N#Cc1c(N)sc2c(F)ccc(-c3c(Cl)c4c5c(nc(OC[C@@]67CCCN6C[C@H](F)C7)nc5c3F)N3C(CCC3COC(F)F)CO4)c12 (stereo partly drawn) [compound 161, 2-amino-4-(6-chloro-11-((difluoromethoxy)methyl)-4-fluoro-2-(((2R,7aS)-2-fluorotetrahydro-1H-pyrrolizin-7a(5H)-yl)methoxy)-8a,9,10,11-tetrahydro-8H-pyrrolo[2′,1′:3,4][1,4]oxazepino[5,6,7-de]quinazolin-5-yl)-7-fluorobenzo[b]thiophene-3-carbonitrile] | < 5 µM
< 5 µM | < 5 µM | < 5 µM | < 5 µM | < 5 µM | < 5 µM | N#Cc1c(N)sc2c(F)ccc(-c3c(Cl)c4c5c(nc(OC[C@@]67CCCN6C[C@H](F)C7)nc5c3F)N3Cc5ccnn5CCC3CO4)c12 (stereo partly drawn) [compound 134, 2-amino-4-(3-chloro-1-fluoro-15-(((2R,7aS)-2-fluorotetrahydro-1H-pyrrolizin-7a(5H)-yl)methoxy)-5,5a,6,7-tetrahydro-12H-pyrazolo[5″,1″:3′,4′][1,4]diazepino[7′,1′:3,4][1,4]oxazepino[5,6,7-de]quinazolin-2-yl)-7-fluorobenzo[b]thiophene-3-carbonitrile] | < 5 µM
< 5 µM | < 5 µM | < 5 µM | < 5 µM | < 5 µM | < 5 µM | COCC1CCC2COc3c(Cl)c(-c4ccc(F)c5sc(N)c(C#N)c45)c(F)c4nc(OCC56CCCN5C[C@H](F)C6)nc(c34)N2C1 (stereo partly drawn) [compound 121, 2-amino-4-(6-chloro-4-fluoro-2-(((2R)-2-fluorotetrahydro-1H-pyrrolizin-7a(5H)-yl)methoxy)-11-(methoxymethyl)-8,8a,9,10,11,12-hexahydropyrido[2′,1′:3,4][1,4]oxazepino [5,6,7-de]quinazolin-5-yl)-7-fluorobenzo[b]thiophene-3-carbonitrile] | < 5 µM
< 5 µM | < 5 µM | < 5 µM | < 5 µM | < 5 µM | < 5 µM | N#Cc1c(N)sc2c(F)ccc(-c3c(Cl)c4c5c(nc(OC[C@@]67CCCN6C[C@H](F)C7)nc5c3F)N(CC(F)F)C3COCC3CO4)c12 (stereo partly drawn) [compound 188, 2-amino-4-(6-chloro-12-(2,2-difluoroethyl)-4-fluoro-2-(((2R,7aS)-2-fluorotetrahydro-1H-pyrrolizin-7a(5H)-yl)methoxy)-8a,9,11a,12-tetrahydro-8H,11H-furo[3′,4′:6,7][1,5]oxazocino[4,3,2-de]quinazolin-5-yl)-7-fluorobenzo[b]thiophene-3-carbonitrile] | < 5 µM
< 5 µM | < 5 µM | < 5 µM | < 5 µM | > 5 µM | < 5 µM | CN1c2nc(OC[C@@]34CCCN3C[C@H](F)C4)nc3c(F)c(-c4ccc(F)c5sc(N)c(C#N)c45)c(Cl)c(c23)OCC2CN(C(=O)C(F)F)CC21 (stereo partly drawn) [compound 120, 2-amino-4-(6-chloro-10-(2,2-difluoroacetyl)-4-fluoro-2-(((2R,7aS)-2-fluorotetrahydro-1H-pyrrolizin-7a(5H)-yl)methoxy)-12-methyl-8a,9,10,11,11a,12-hexahydro-8H-pyrrolo[3′,4′:6,7][1,5]oxazocino[4,3,2-de]quinazolin-5-yl)-7-fluorobenzo[b]thiophene-3-carbonitrile] | < 5 µM
< 5 µM | < 5 µM | < 5 µM | < 5 µM | < 5 µM | < 5 µM | N#CCC1CN2c3nc(OC[C@@]45CCCN4C[C@H](F)C5)nc4c(F)c(-c5ccc(F)c6sc(N)c(C#N)c56)c(Cl)c(c34)OCCC12 (stereo partly drawn) [compound 114, 2-amino-4-(9-chloro-1-(cyanomethyl)-7-fluoro-5-(((2R,7aS)-2-fluorotetrahydro-1H-pyrrolizin-7a(5H)-yl)methoxy)-1,11,12,12a-tetrahydro-2H-azeto[1′,2′:5,6][1,5]oxazocino[4,3,2-de]quinazolin-8-yl)-7-fluorobenzo[b]thiophene-3-carbonitrile] | < 5 µM
< 5 µM | < 5 µM | < 5 µM | < 5 µM | < 5 µM | < 5 µM | COC[C@H]1C[C@H]2COc3c(Cl)c(-c4ccc(F)c5sc(N)c(C#N)c45)c(F)c4nc(OC[C@@]56CCCN5C[C@H](F)C6)nc(c34)N21 [compound 173, 2-amino-4-(9-chloro-7-fluoro-5-(((2R,7aS)-2-fluorotetrahydro-1H-pyrrolizin-7a(5H)-yl)methoxy)-2-(methoxymethyl)-1,2,11,11a-tetrahydroazeto[2′,1′:3,4][1,4]-oxazepino[5,6,7-de]quinazolin-8-yl)-7-fluorobenzo[b]thiophene-3-carbonitrile] | < 5 µM
< 5 µM | < 5 µM | < 5 µM | < 5 µM | < 5 µM | < 5 µM | N#CCC1CCC2COc3c(Cl)c(-c4ccc(F)c5sc(N)c(C#N)c45)c(F)c4nc(OCC56CCCN5C[C@H](F)C6)nc(c34)N2C1 (stereo partly drawn) [compound 204, 2-amino-4-(6-chloro-11-(cyanomethyl)-4-fluoro-2-(((2R)-2-fluorotetrahydro-1H-pyrrolizin-7a(5H)-yl)methoxy)-8,8a,9,10,11,12-hexahydropyrido[2′,1′:3,4][1,4]oxazepino [5,6,7-de]quinazolin-5-yl)-7-fluorobenzo[b]thiophene-3-carbonitrile] | < 5 µM
< 5 µM | < 5 µM | < 5 µM | < 5 µM | < 5 µM | < 5 µM | N#Cc1c(N)sc2c(F)ccc(-c3c(Cl)c4c5c(nc(OC[C@@]67CCCN6C[C@H](F)C7)nc5c3F)N3CC5(CCCC3CO4)CN(C(=O)C3CC3(F)F)C5)c12 (stereo partly drawn) [compound 155, 2-amino-4-(3-chloro-1′-(2,2-difluorocyclopropane-1-carbonyl)-1-fluoro-13-(((2R,7aS)-2-fluorotetrahydro-1H-pyrrolizin-7a(5H)-yl)methoxy)-5a,6,7,8-tetrahydro-5H,10H-spiro[azepino[2′,1′:3,4][1,4]oxazepino[5,6,7-de]quinazoline-9,3′-azetidin]-2-yl)-7-fluorobenzo[b]thiophene-3-carbonitrile] | < 5 µM
< 5 µM | < 5 µM | < 5 µM | < 5 µM | < 5 µM | < 5 µM | N#Cc1c(N)sc2c(F)ccc(-c3c(Cl)c4c5c(nc(OC[C@@]67CCCN6C[C@H](F)C7)nc5c3F)N3CC(F)(F)C[C@H]3CO4)c12 [compound 181] | < 5 µM
< 5 µM | < 5 µM | < 5 µM | < 5 µM | < 5 µM | < 5 µM | CN1c2nc(OC[C@@]34CCCN3C[C@H](F)C4)nc3c(F)c(-c4ccc(F)c5sc(N)c(C#N)c45)c(Cl)c(c23)OCC2COCC21 (stereo partly drawn) [compound 141, 2-amino-4-(6-chloro-4-fluoro-2-(((2R,7aS)-2-fluorotetrahydro-1H-pyrrolizin-7a(5H)-yl)methoxy)-12-methyl-8a,9,11a,12-tetrahydro-8H,11H-furo[3′,4′:6,7][1,5]oxazocino[4,3,2-de]quinazolin-5-yl)-7-fluorobenzo[b]thiophene-3-carbonitrile] | < 5 µM

Compound | IC50 [1] | IC50 [2] | IC50 [3] | IC50 [4] | IC50 [6] | IC50 [7] | IC50 [5]
N#Cc1c(N)sc2c(F)ccc(-c3c(Cl)c4c5c(nc(OC[C@@]67CCCN6C[C@H](F)C7)nc5c3F)N3[C@H](CO4)C[C@@H]4OCC[C@@H]43)c12 [compound 133, 2-amino-4-((5aS,6aS,9aS)-3-chloro-1-fluoro-12-(((2R,7aS)-2-fluorotetrahydro-1H-pyrrolizin-7a(5H)-yl)methoxy)-5a,6,6a,8,9,9a-hexahydro-5H-furo[2″,3″:4′,5′]pyrrolo[2′,1′:3,4][1,4]oxazepino[5,6,7-de]quinazolin-2-yl)-7-fluorobenzo[b]thiophene-3-carbonitrile] | < 5 µM | < 5 µM | < 5 µM | < 5 µM | < 5 µM | < 5 µM | < 5 µM
